# Where “and” joins values, the source holds several entries; their conditions need not be identical. Equal entries are not always repeated.
# Target: T1, Adenosine receptor A1 (Gallus gallus, UniProt P49892)
# T1 sequence (P49892 whole entry): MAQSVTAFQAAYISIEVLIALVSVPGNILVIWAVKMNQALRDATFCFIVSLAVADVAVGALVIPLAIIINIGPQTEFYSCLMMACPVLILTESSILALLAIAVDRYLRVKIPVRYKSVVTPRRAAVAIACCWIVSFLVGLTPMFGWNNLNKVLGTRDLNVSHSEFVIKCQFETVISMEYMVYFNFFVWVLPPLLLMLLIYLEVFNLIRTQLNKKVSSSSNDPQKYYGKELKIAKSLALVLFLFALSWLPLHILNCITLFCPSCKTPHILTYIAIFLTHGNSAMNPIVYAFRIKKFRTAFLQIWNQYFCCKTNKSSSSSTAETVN
row,Ki,SMILES
1,2.5 nM,OC[C@H]1O[C@@H](n2cnc3c(NC4CCCCC4)ncnc32)[C@H](O)[C@@H]1O [CHA]
2,2070 nM and 790 nM,"CCn1c(=O)c2[nH]c(-c3ccccc3)nc2n(CC)c1=O [1,3-Diethyl-8-phenyl-3,7-dihydro-purine-2,6-dione]"

row,SMILES,Ki
1,CCNC(=O)[C@H]1O[C@@H](n2cnc3c(N)ncnc32)[C@H](O)[C@@H]1O,14.4 nM and 16.9 nM

# Reference: BindingDB's records for PubMed 3252029 (University of Illinois At Chicago, 1988)
